Data set [1] relates to human prostate cancer cells (PC3). As to the kind of experiment: Cytotoxicity by SRB assay, prostate cancer cells. Format: cell-based. Conditions: for IC50: PC-3, 72 h, mean±SD. As for the experimental part:
(§1) The human prostate cancer cells (PC3) and human osteosarcoma cells (MG-63) were obtained from Nawah Scientific Inc. (Mokatam, Cairo, Egypt) and cultured in DMEM (Dulbecco's modified eagle's medium), Gibco, USA, supplemented with fetal bovine serum (FBS) at a concentration of 10% and 100 U/mL of penicillin and streptomycin (PS). The Cells were incubated at 37° C. in a humidified environment that contained 5% CO2.
(§2) The anticancer activity of 1-cyclopropyl-6-fluoro-4-oxo-7-(4-((5-oxo-2-phenyl-4-(quinolin-2-ylmethylene)-4,5-dihydro-1H-imidazol-1-yl)methyl)piperazin-1-yl)-1,4-dihydroquinoline-3-carboxylic acid was assessed against highly aggressive androgen-independent metastatic human prostate cancer cells (PC3) and osteosarcoma (MG-63) cells.
(§3) Cells were seeded in 96-well plates as aliquots of 100 μL cell suspension and incubated in a complete media for 24 h. afterward, cells were treated with 1-cyclopropyl-6-fluoro-4-oxo-7-(4-((5-oxo-2-phenyl-4-(quinolin-2-ylmethylene)-4,5-dihydro-1H-imidazol-1-yl)methyl)piperazin-1-yl)-1,4-dihydroquinoline-3-carboxylic acid at diverse concentrations ranging from 0.01 μM to 100 μM for 72 h. Then, cells were fixed at 4° C. for one hour with 150 μL of 10% trichloroacetic acid (TCA). After washing the cells five times with distilled water, 70 μL of sulforhodamine (SRB) solution (0.4% w/v) was added and incubated for 10 min at room temperature in a dark place. Cells were washed with 1% acetic acid three times and allowed to air-dry. Then, 150 μL of Tris pH 10.5 (10 mM) was added, and the absorbance was measured at 540 nm using a BMG LABTECH®-FLUOstar Omega microplate reader (Ortenberg, Germany). Half maximal inhibitory concentrations (IC50) values were calculated for each experiment using GraphPad Prism 6 software. IC50 values were reported as mean±SD.
(§4) The inhibition was calculated using the following equation: Inhibition %=100−Average Viability

In data set [2] the test system is human osteosarcoma cells (MG-63). Kind of data set: Cytotoxicity by SRB assay, osteosarcoma cells. It counts as cell-based. The following applies: MG-63, 72 h, mean±SD. The method, then:
as §1, §2, §3, §4

The target of data set [3] is Bovine Serum Albumin (Bos taurus, UniProt P02769). As to the kind of experiment: Bovine Serum Albumin assay (BSA), inhibition of protein denaturation. Format: biochemical. The following applies: pH 6.4, read-out: percentage inhibition of precipitation (protein denaturation). As for the experimental part: In vitro-inflammatory activities of the tested samples were determined using a modified method of the BSA assay reported by Williams et al. BSA solution (0.4%, w/v) was prepared in Tris Buffered Saline. The pH was adjusted to 6.4 with glacial acetic acid. Different dilutions of 20, 40, 60, 80, and 100 μg/mL of the stock solutions were added to test tubes containing 1 mL of 0.4%, w/v BSA buffer solution. Both negative (solvent) and positive (aspirin) controls were assayed in a similar manner. The solutions were then heated in a water bath at 72° C. for 10 minutes and cooled for 20 minutes under laboratory conditions. The turbidity of the solutions (level of protein precipitation) was measured at 660 nm in Spectrophotometer (V-770 UV-Visible/NIR Spectrophotometer).
The percentage inhibition of precipitation (protein denaturation) was determined relative to the negative control using the following equation: […]

The record followed here is patent US11945800B1, “1-cyclopropyl-6-fluoro-4-oxo-7-(4-((5-oxo-2-phenyl-4-(quinolin-2-ylmethylene)-4,5-dihydro-1H-imidazol-1-yl)methyl)piperazin-1-yl)-1,4-dihydroquinoline-3-carboxylic acid as an anti-inflammatory and anticancer compound” (KING FAISAL UNIVERSITY, priority 2023, dated 2024).

Where only a bound is given, the exact number is not on record here.

Bovine Serum Albumin, sequence (P02769 25-607): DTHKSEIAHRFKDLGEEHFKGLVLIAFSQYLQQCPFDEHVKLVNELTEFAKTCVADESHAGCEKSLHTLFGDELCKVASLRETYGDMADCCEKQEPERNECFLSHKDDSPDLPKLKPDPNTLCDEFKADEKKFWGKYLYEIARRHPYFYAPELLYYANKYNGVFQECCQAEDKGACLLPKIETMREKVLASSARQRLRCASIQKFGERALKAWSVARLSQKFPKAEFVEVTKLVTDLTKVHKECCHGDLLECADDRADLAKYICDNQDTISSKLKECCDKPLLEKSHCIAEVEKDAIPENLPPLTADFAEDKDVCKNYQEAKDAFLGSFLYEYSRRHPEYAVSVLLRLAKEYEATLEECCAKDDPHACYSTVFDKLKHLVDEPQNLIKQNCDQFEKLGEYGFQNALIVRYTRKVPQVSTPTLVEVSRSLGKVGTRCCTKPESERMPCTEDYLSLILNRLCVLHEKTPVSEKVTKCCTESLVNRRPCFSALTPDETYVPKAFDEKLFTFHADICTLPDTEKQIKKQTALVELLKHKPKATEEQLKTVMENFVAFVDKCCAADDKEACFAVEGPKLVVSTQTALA

In the case of `O=C(O)c1cn(C2CC2)c2cc(N3CCN(CN4C(=O)/C(=C\c5ccc6ccccc6n5)N=C4c4ccccc4)CC3)c(F)cc2c1=O` [Compound 4, 1-cyclopropyl-6-fluoro-4-oxo-7-(4-((5-oxo-2-phenyl-4-(quinolin-2-ylmethylene)-4,5-dihydro-1H-imidazol-1-yl)methyl)piperazin-1-yl)-1,4-dihydroquinoline-3-carboxylic acid], the melting point was 231 to 235 °C. Also, in data set [1] (Homo sapiens, 72 h), the IC50 is less than 4 µM. In data set [1] (Homo sapiens, 72 h, Prostate cancer (PC-3), 10 μg/ml), this compound registered an inhibition at 10 µg/mL of 94%. The midpoint of inhibition in data set [1] (listed as Our Product), the IC50, lay at 2.88 ± 0.03 µM. For the same compound, the Inhibition % in data set [1] (Prostate cancer (PC-3), 10 μg/ml, 72 h) turned out to be 94.32%. Besides, the IC50 in data set [2] (Homo sapiens) is less than 4 µM. Also, the IC50 in data set [2] (listed as Our Product) worked out at 3.38 ± 0.2 µM. Also, in data set [3], the inhibition at 100 µg/mL was 88.1%.

As for `COc1cccc2c1C(=O)c1c(O)c3c(c(O)c1C2=O)C[C@@](O)(C(=O)CO)C[C@@H]3O[C@H]1C[C@H](N)[C@H](O)[C@H](C)O1` [DOX, Doxorubicin, reference compound], the IC50 is 7.6 ± 0.45 µM in data set [1] (Homo sapiens, 72 h) and 9.4 ± 1.1 µM in data set [2] (Homo sapiens).
